One block for each molecule: values may come before it. Where a SMILES comes first, the peptide text is derived from it. The star is where a group is joined. Cbz = O=C(OCc1ccccc1)*
Experiments:
hippocampal slices = details: cited from earlier work
hippocampal neurons [1] = experiment: Effects of deoxy-galactose sugars on neuronal morphology (anti-tau immunostaining); assay type: cell-based, rat; details: for rescue of 2-dGal effects: 75 mM Gal for 2 days after 15 mM 2-dGal for 2 days
Protocol: Hippocampal neurons were plated on poly-DL-ornithine-coated glass coverslips as described above. After one day in culture, the medium was replaced with fresh medium, and the small molecules (2-dGal, 3-Deoxy-D-Galactose (3-dGal), or D-Galactose (Gal)) were added. A dose-response experiment was initially performed to determine the minimum concentration of 2-dGal needed to elicit an effect. Neurons were treated with varying concentrations of 2-dGal (1, 5, 10, 15, or 30 mM in 25 μL PBS with 475 μL of supplemented Neurobasal medium) for 2 days before immunostaining with anti-tau antibodies as described above.
Cells were treated as above under 4 different conditions: (1) no treatment for 2 days, (2) incubation with 15 mM 2-dGal for 2 days, (3) incubation with 15 mM 2-dGal for 2 days followed by incubation with 75 mM Gal for 2 days, or (4) incubation with 15 mM 3-dGal for 2 days. After adding the small molecules, cultures were incubated at 37° C., 5% CO2, then washed once with PBS, and immunostained with anti-tau antibody as described above.

[2] = tested on: synapsin I expressed in HeLa cells; experiment: Synapsin fucosylation and expression in synapsin I-transfected HeLa cells (immunoblotting); assay type: cell-based; details: deoxy sugar for 24 h
Protocol: (§1) FIG. 19. Inhibition of synapsin fucosylation using 2-dGal decreases the expression and half-life of synapsin I. (A) Effects of 2-dGal and 6-dGal on synapsin fucosylation (left panel) and synapsin expression (right panel) levels. Synapsin I-transfected HeLa cells were treated with the indicated amounts of the deoxy sugar for 24 h. Fucosylation and synapsin expression levels were measured by immunoblotting with antibody A46-B/B10 and an anti-synapsin antibody, respectively. […] Synapsin I-transfected HeLa cells were treated with 2-dGal or a vehicle control (PBS), pulse labeled with ^35S-L-cysteine and ^35S-L-methionine as described in Materials and Methods, and chased for the indicated times. ^35S-labeled synapsin levels were measured by autoradiography. (C) Inhibition of the calcium-activated protease calpain using a calpain inhibitor peptide or calpeptin protects synapsin from degradation. […] Synapsin I-transfected HeLa cells were treated with the indicated inhibitors or vehicle control (DMSO, PBS or MeOH) in the presence or absence of 2-dGal for 15 h. Following lysis, the cell extracts were analyzed for synapsin expression levels by immunoblotting.
The effects of 2-dGal on synapsin I expressed in HeLa cells were next investigated. Cell lysates containing equivalent amounts of transfected protein were resolved by SDS-PAGE, and the fucosylation and protein levels of synapsin were measured by immunoblotting, using methods described above.

E18 cortical neurons = experiment: Expression of synaptic proteins in cultured neurons (Western blotting); assay type: cell-based; details: 15 mM for 3 days, neurons 7 DIV
Protocol: FIG. 20. […] (A) E18 cortical neurons cultured for 7 DIV were treated with 15 mM of 2-dGal or 6-dGal for 3 days. Protein lysates were analyzed by Western blotting using antibodies selective for the indicated proteins. A significant reduction in the expression of synapsin Ib was observed, while other synapse-associated proteins were unaffected by the 2-dGal treatment. (B) Neurite retraction caused by 2-dGal is reduced in synapsin-deficient mice. Neurons from synapsin I-deficient or wild-type mice were cultured for 2 days, treated with 2-dGal for 3 days, and analyzed for mean neurite length.
To examine the effects of 2-dGal on synapsin fucosylation in neurons, neurons were cultured for 7 DIV to allow for adequate expression of synapsin and subsequently treated with 2-dGal or 6-dGal for comparison. Cells were lysed and immunoblotted as described above. […] The expression of other synaptic proteins, including NSF, the synaptic vesicle protein synaptotagmin, the presynaptic plasma membrane protein syntaxin, and the postsynaptic proteins PSD-95, the AMPA receptor GluR1 subunit and spinophilin, was unchanged by the 2-dGal treatment.

[3] = tested on: binding of antibody A46-B/B10 to bovine synapsin I; experiment: Competition ELISA; details: competitors 0.078-5 mM
Protocol: To gain insight into the structural determinants recognized by antibody A46-B/B10, competition enzyme-linked immunosorbent assay (ELISA) experiments were performed using a series of fucose analogs (FIG. 12 A, B). Purified bovine synapsin Ia/Ib (Ueda, T., et al., J. Biol. Chem., 252:5155-5163 (1977)) was a supplied by Drs. P. Greengard and A. Nairn (The Rockefeller University, New York, N.Y.). The protein was immobilized on a microtiter plate by incubation in 50 mM NaHCO3, pH 9.0 at 4° C. overnight. Antibody A46-B/B10 (0.02 mg/mL) and the competitors (0.078-5 mM) were incubated in TBST (50 mM Tris-HCl pH 7.4, 150 mM NaCl, 0.1% Tween-20) at 4° C. overnight and then transferred to the microtiter plate. The wells were washed with TBST and incubated with a goat anti-mouse secondary antibody conjugated to alkaline phosphatase (1:500) at rt for 1 h. The wells were washed with TBST and developed with p-nitrophenyl phosphate. Inhibition curves were generated using PRISM (GraphPAD Software, Inc.).
Synapsin Ia and Ib from bovine brain were immobilized on a microtiter plate, and binding of antibody A46-B/B10 to synapsin was assessed in the presence of varying concentrations of the competitors (see FIG. 12A for structures of the competitor molecules). […] (Haselhorst, T., et al., J. Am. Chem. Soc., 123:10705-10714 (2001))

[4] = tested on: synapsin I-transfected HeLa cells; experiment: Synapsin degradation with inhibitors of protein degradation with or without 2-dGal; assay type: cell-based; details: with 2-dGal, 15 h
Protocol: as §1
To investigate the molecular mechanisms responsible for synapsin degradation, cells expressing synapsin were treated with various inhibitors of protein degradation in the presence or absence of 2-dGal. Specifically, the lysosomal inhibitors bafilomycin A1 and ammonium chloride, the proteasome inhibitor MG132, and two inhibitors of the calcium-dependent protease calpain, were used.

hippocampal neurons [5] = experiment: Binding of biotinylated probe to cultured hippocampal neurons (streptavidin-AlexaFluor 488 imaging); assay type: cell-based, rat; details: 3 mM, 10 μM PAO
Protocol: Hippocampal neurons were cultured using a procedure modified from Goslin and Banker, in Culturing Nerve Cells, Banker, G., Goslin, K., Eds., pp. 251-281, MIT Press: Cambridge, Mass. 1991. Briefly, the hippocampi of embryonic day 18 (E18) rats were dissected and transferred to 4.5 mL of ice-cold Calcium and Magnesium Free-Hank's Balanced Salt Solution (CMF-HBSS). Trypsin (2.5%, no EDTA) was added to 5 mL, and the tissue was incubated for 15 min at 37° C. The trypsin solution was removed and the tissue sample washed three times with 5 mL of CMF-HBSS. Cells were then dissociated from the tissue in 1 mL of CMF-HBSS by passing through a P1000 pipet tip twenty times. The cells were counted, diluted into Minimal Eagle's Medium (MEM) plus 10% fetal bovine serum, and seeded on poly-DL-ornithine-coated glass coverslips (Carolina Biological) at a density of 75 cells/mm2 (100 μL/coverslip) for 30 min. After this time, 500 μL of supplemented Neurobasal medium (47.5 mL Neurobasal medium without Lglutamine; 0.5 mL L-glutamine (200 mM); 0.5 mL penicillin/streptomycin (10,000 U/mL); 0.5 mL antibiotic-antimycotic (100× stock), 1.0 mL B-27 serum-free supplement (50× stock); 50 μL of 0.5 M kynurenic acid in 1 N NaOH) was added to each coverslip. The use of kynurenic acid to block glutamate receptor ion channels and enhance neuronal health and survival is standard protocol for neuronal cultures. Id. The cultures were maintained in 5% CO2 at 37° C. in supplemental Neurobasal medium.
After 23 days in culture, the medium was replaced, and neurons were treated with the endocytosis inhibitor phenylarsine oxide (PAO; 4 μL in DMSO, final concentration 10 μM) (Nouel, D., et al., J. Neurosci. 17:1795-1803 (1997)) and either compound III (24 μL in PBS, final concentration 3 mM), or biotin (24 μL in PBS, final concentration 3 mM), in supplemented Neurobasal medium (400 μL final volume) for 1 h at 37° C., 5% CO2. After 1 h, neurons were rinsed 2 times with PBS, fixed in 4% paraformaldehyde for 20 min at rt, washed 2 times with PBS, permeabilized in 0.3% Triton X-100 for 5 min at rt, and washed 2 times with PBS. Non-specific binding was blocked with 3% BSA for 1 h at rt and then rinsed one time with PBS. Compound III was detected with streptavidin conjugated to AlexaFluor 488 (1:200, Molecular Probes). Dye-conjugated streptavidin was added in 3% BSA for 1 h at 37° C. and the excess reagent washed off 5 times with PBS. Coverslips were then mounted onto slides with Vectashield, sealed, and imaged using confocal laser microscopy. Results can be seen in FIG. 2.
De-lipidation was performed on some samples following the protocol of Yavin, E. et al., J. Neurosci. Res. 9:229-237 (1983). Briefly, after 23 days in culture, cells were rinsed once with PBS then exposed to MeOH/CHCl3 (½ by vol.) for 15 min at −80° C. This procedure fixes the cells to the coverslip and extracts cellular lipids. After removing the MeOH/CHCl3 mixture, coverslips were dried at rt then incubated with 3% BSA for 1 hr at rt. After one rinse with PBS, neurons were treated with PAO and the procedure described above was followed.

Molecule: 2′fucosyllactose
effect on LTP (hippocampal slices): enhance LTP

Molecule: O=C[C@H](O)C[C@@H](O)[C@H](O)CO [Compound 3-dGal, 3-Deoxy-D-Galactose]
effect on neurite outgrowth (hippocampal neurons [1]; 15 mM for 2 days): no impact on neurite outgrowth

Molecule: C[C@@H](O)[C@H](O)[C@H](O)[C@@H](O)C=O [Compound 6-dGal, 6-deoxy-D-galactose]
fucosylation level of synapsin [2]: no effect
level of synapsin protein [2]: no effect
expression of synapsin I (E18 cortical neurons): no effect

inhibition of antibody binding to synapsin Ia and Ib [3]: did not compete
Molecule: O=C[C@H](O)[C@@H](O)[C@H](O)[C@H](O)CO [D-glucose]

Molecule: CCO[C@@H]1O[C@H](CO)[C@H](O)[C@H](O)[C@H]1O[C@@H]1O[C@@H](C)[C@@H](O)[C@@H](O)[C@@H]1O [Fucα(1-2)Gal-β-OEt, Ethyl O-(α-L-fucopyranosyl)-(1-2)-β-D-galactopyranoside]
inhibition of antibody binding to synapsin Ia and Ib [3]: selectively inhibited

inhibition of antibody binding to synapsin Ia and Ib [3]: did not compete
Molecule: O=C[C@H](O)[C@@H](O)[C@@H](O)[C@H](O)CO [Gal, D-Galactose]
rescue of 2-dGal effects (hippocampal neurons [1]): rescued
rescue of 2-dGal effects (hippocampal neurons [1]; listed as D-galactose): regeneration of the neuronal processes

inhibition of antibody binding to synapsin Ia and Ib [3]: effective at inhibiting antibody binding
Molecule: CCOC1OC(C)C(O)C(O)C1O [L-Fuc-α-OEt, ethyl α/β-L-fucopyranoside]
IC50 (compared in words) [3]: comparable to that of the disaccharide Fucα(1-2)Gal-β-OEt

inhibition of antibody binding to synapsin Ia and Ib [3]: effective at inhibiting antibody binding
Molecule: C[C@H](O)[C@@H](O)[C@@H](O)[C@H](O)C=O [L-fucose]
effect on LTP (hippocampal slices): enhance LTP
IC50 (compared in words) [3]: comparable to that of the disaccharide Fucα(1-2)Gal-β-OEt

Molecule: CC(C)C[C@@H](C=O)NC(=O)[C@H](CC(C)C)NC(=O)[C@H](CC(C)C)NC(=O)OCc1ccccc1 [MG132] (Cbz-Leu-Leu-Leu-aldehyde)
rescue of synapsin from 2-dGal-induced degradation [4]: no effect on synapsin degradation

inhibition of antibody binding to synapsin Ia and Ib [3]: did not compete
Molecule: CC(=O)N[C@H]1C(O)O[C@H](CO)[C@@H](O)[C@@H]1O (stereo partly drawn) [N-acetyl-D-glucosamine]

Molecule: Cl.N [ammonium chloride]
rescue of synapsin from 2-dGal-induced degradation [4]: no effect on synapsin degradation

Molecule: CO/C1=C\C(C)=C\[C@@H](C)[C@@H](O)[C@@H](C)C/C(C)=C/C=C/[C@H](OC)[C@@H]([C@@H](C)[C@@H](O)[C@H](C)[C@@]2(O)C[C@@H](O)[C@H](C)[C@@H](C(C)C)O2)OC1=O [bafilomycin A1]
rescue of synapsin from 2-dGal-induced degradation [4]: no effect on synapsin degradation

Molecule: O=C(O)CCCC[C@@H]1SC[C@@H]2NC(=O)N[C@@H]21 [biotin]
labeling of neurons after de-lipidation (hippocampal neurons [5]; neurons de-lipidated with MeOH/CHCl3): minor binding of the biotin alone to the cell body but not the neurites
binding to hippocampal neurons (hippocampal neurons [5]; 1 h, E18 neurons 23 days in vitro): this binding is not between the biotin moieties and the neuron

Molecule: CCCC[C@@H](C=O)NC(=O)[C@H](CC(C)C)NC(=O)OCc1ccccc1 [calpeptin]
rescue of synapsin from 2-dGal-induced degradation [4]: rescued the effects of 2-dGal

From patent US7858578B2, “Methods of inducing neuronal growth by a Fucose-α(1-2) galactose (fuc-α(1-2) gal) moiety and a lectin” (California Institute of Technology, priority 2004, dated 2010)
